Assays:
Experiment in all cases: KinomeScan
Assay type in all cases: binding
Conditions in all cases: read-out: % Ctrl @ 10000 nM
EGFR(E746-A750del) = target: T1, EGFR(E746-A750del) (Homo sapiens, UniProt P00533, DEL746-750)
T1 construct: purchased Ambit Biosciences Corp (KinomeScan); host or cells: T7 phage in E. coli host derived from BL21
Outline: (§1)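 In this phage-display binding screen, compound competes with immobilized ligand for the kinase fusion, and bead-bound phage, eluted after washing, is titered by qPCR.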

SYK = target: T2, SYK (Homo sapiens, UniProt P43405)
T2 construct: host or cells: T7 phage grown in E. coli (BL21-derived)
Outline: as §1

DDR2 = target: T3, DDR2 (Homo sapiens, UniProt Q16832)
T3 construct: purchased Ambit Biosciences Corp (KinomeScan); host or cells: T7 phage in E. coli host derived from BL21
Outline: as §1

CDK9 = target: T4, CDK9 (Homo sapiens, UniProt P50750)
T4 construct: host or cells: T7 phage in E. coli host derived from BL21
T4 sequence (P50750 whole entry): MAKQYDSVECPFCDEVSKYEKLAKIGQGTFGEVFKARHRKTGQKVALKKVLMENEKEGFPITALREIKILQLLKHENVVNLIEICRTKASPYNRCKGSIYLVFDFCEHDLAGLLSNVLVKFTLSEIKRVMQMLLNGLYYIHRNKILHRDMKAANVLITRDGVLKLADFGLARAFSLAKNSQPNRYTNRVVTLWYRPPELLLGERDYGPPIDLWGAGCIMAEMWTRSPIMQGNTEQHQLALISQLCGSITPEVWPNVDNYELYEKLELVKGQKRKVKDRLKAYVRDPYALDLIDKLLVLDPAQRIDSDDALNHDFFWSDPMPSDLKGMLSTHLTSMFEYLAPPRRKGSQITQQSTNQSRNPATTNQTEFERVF
Outline: as §1

CSNK1G2 = target: T5, CSNK1G2 (Homo sapiens, UniProt P78368)
T5 construct: purchased Ambit Biosciences Corp (KinomeScan); host or cells: T7 phage in E. coli host derived from BL21
Outline: as §1

ACVR1B = target: T6, ACVR1B (Homo sapiens, UniProt P36896)
T6 construct: host or cells: E. coli (BL21-derived), T7 phage lysate
T6 sequence (P36896 24-505): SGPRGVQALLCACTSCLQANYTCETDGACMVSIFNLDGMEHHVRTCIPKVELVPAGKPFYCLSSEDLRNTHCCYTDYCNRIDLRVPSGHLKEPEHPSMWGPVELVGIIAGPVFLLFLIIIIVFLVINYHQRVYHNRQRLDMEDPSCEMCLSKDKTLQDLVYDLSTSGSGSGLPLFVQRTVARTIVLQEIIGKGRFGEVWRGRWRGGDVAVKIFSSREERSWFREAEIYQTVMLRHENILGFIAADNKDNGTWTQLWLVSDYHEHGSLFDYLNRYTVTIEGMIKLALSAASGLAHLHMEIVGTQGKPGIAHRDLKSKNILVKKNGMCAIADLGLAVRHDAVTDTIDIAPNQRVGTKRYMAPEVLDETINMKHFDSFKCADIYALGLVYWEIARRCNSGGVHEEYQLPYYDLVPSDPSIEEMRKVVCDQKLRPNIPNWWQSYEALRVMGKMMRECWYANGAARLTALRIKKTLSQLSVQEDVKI
Outline: as §1

BRSK2 = target: T7, BRSK2 (Homo sapiens, UniProt Q8IWQ3)
T7 construct: host or cells: E. coli host derived from BL21
Outline: as §1

CAMK1D = target: T8, CAMK1D (Homo sapiens, UniProt Q8IU85)
T8 construct: host or cells: E. coli host derived from BL21
Outline: as §1

KIT(V559D) = target: T9, KIT(V559D) (Homo sapiens, UniProt P10721, V559D)
T9 construct: host or cells: T7 phage grown in E. coli host derived from BL21
Outline: as §1

p38-alpha = target: T10, p38-alpha (Homo sapiens, UniProt Q16539)
T10 construct: host or cells: E. coli host derived from BL21, infected with T7 phage
T10 sequence (Q16539 whole entry): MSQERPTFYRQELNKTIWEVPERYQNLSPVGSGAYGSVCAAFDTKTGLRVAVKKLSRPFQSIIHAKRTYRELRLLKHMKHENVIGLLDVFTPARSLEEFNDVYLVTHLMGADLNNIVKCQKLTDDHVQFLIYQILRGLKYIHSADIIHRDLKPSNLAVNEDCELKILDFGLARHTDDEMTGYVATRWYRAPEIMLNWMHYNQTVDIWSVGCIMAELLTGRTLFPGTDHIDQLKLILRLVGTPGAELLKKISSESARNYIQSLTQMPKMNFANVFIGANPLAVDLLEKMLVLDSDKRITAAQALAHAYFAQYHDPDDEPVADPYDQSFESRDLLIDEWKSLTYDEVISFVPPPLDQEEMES
Outline: as §1

ERK2 = target: T11, ERK2 (Homo sapiens, UniProt P28482)
T11 construct: purchased Ambit Biosciences Corp; host or cells: T7 phage in E. coli host derived from BL21
T11 sequence (P28482 whole entry): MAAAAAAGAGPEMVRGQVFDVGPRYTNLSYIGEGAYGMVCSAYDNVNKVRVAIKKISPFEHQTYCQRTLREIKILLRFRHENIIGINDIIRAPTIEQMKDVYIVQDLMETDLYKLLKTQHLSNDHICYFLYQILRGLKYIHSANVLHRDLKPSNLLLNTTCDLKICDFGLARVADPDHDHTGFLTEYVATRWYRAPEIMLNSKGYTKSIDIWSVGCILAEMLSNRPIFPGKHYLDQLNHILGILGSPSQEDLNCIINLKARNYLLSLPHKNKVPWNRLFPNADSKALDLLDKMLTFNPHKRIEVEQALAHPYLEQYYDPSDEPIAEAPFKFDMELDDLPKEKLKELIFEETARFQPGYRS
Outline: as §1

MAP3K3 = target: T12, MAP3K3 (Homo sapiens, UniProt Q99759)
T12 construct: host or cells: E. coli host derived from the BL21 strain, infected with T7 phage
T12 sequence (Q99759 whole entry): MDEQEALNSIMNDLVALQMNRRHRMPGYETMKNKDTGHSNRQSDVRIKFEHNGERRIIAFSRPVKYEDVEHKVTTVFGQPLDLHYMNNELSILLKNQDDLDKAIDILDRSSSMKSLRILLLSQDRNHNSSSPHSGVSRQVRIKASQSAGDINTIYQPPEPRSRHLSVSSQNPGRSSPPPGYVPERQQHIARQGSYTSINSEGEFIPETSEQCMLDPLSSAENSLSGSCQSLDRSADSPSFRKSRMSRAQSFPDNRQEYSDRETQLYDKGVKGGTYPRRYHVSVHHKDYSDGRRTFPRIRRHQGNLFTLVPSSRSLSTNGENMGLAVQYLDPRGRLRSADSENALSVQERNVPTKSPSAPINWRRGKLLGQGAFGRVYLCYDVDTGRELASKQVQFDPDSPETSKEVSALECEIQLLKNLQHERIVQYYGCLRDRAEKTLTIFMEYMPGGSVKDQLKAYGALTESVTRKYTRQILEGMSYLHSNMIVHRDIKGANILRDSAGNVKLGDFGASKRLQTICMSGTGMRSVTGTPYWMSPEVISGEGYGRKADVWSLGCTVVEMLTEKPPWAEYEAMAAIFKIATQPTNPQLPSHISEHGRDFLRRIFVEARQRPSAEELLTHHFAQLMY
Outline: as §1

FYN = target: T13, FYN (Homo sapiens, UniProt P06241)
T13 construct: host or cells: T7 phage in E. coli host derived from BL21
Outline: as §1

CDK3 = target: T14, CDK3 (Homo sapiens, UniProt Q00526)
T14 construct: host or cells: T7 phage in E. coli host derived from BL21
Outline: as §1

MLK2 = target: T15, MLK2 (Homo sapiens, UniProt Q02779)
T15 construct: host or cells: T7 phage grown in E. coli host derived from BL21
Outline: as §1

MAP4K3 = target: T16, MAP4K3 (Homo sapiens, UniProt Q8IVH8)
T16 construct: host or cells: E. coli host derived from the BL21 strain, infected with T7 phage
Outline: as §1

p38-gamma = target: T17, p38-gamma (Homo sapiens, UniProt P53778)
T17 construct: host or cells: E. coli host derived from BL21, infected with T7 phage
Outline: as §1

ABL1(M351T) = target: T18, ABL1(M351T) (Homo sapiens, UniProt P00519, M351T)
T18 construct: host or cells: E. coli (BL21-derived), T7 phage lysate
Outline: as §1

SNARK = target: T19, SNARK (Homo sapiens, UniProt Q9H093)
T19 construct: host or cells: T7 phage grown in E. coli (BL21-derived)
Outline: as §1

CSNK1A1L = target: T20, CSNK1A1L (Homo sapiens, UniProt Q8N752)
T20 construct: host or cells: T7 phage in E. coli host derived from BL21
Outline: as §1

MST1R = target: T21, MST1R (Homo sapiens, UniProt Q04912)
T21 construct: host or cells: T7 phage grown in E. coli host derived from BL21
Outline: as §1

FGFR3 = target: T22, FGFR3 (Homo sapiens, UniProt P22607)
T22 construct: host or cells: T7 phage in E. coli host derived from BL21
Outline: as §1

ERK1 = target: T23, ERK1 (Homo sapiens, UniProt P27361)
T23 construct: purchased Ambit Biosciences Corp; host or cells: T7 phage in E. coli host derived from BL21
T23 sequence (P27361 whole entry): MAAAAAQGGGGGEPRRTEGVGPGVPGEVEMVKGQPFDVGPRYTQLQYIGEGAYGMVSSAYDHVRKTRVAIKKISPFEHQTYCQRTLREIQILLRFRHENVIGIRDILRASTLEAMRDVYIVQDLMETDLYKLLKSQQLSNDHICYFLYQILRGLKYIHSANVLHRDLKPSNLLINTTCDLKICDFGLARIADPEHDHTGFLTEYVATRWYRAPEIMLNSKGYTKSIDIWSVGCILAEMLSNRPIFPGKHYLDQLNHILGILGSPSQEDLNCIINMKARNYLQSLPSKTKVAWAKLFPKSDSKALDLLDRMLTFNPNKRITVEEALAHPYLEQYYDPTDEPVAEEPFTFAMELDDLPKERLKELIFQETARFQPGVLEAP
Outline: as §1

CAMKK2 = target: T24, CAMKK2 (Homo sapiens, UniProt Q96RR4)
T24 construct: host or cells: T7 phage in E. coli host derived from BL21
Outline: as §1

ACVR1 = target: T25, ACVR1 (Homo sapiens, UniProt Q04771)
T25 construct: host or cells: E. coli (BL21-derived), T7 phage lysate
Outline: as §1

FGFR4 = target: T26, FGFR4 (Homo sapiens, UniProt P22455)
T26 construct: host or cells: T7 phage in E. coli host derived from BL21
T26 sequence (P22455 22-802): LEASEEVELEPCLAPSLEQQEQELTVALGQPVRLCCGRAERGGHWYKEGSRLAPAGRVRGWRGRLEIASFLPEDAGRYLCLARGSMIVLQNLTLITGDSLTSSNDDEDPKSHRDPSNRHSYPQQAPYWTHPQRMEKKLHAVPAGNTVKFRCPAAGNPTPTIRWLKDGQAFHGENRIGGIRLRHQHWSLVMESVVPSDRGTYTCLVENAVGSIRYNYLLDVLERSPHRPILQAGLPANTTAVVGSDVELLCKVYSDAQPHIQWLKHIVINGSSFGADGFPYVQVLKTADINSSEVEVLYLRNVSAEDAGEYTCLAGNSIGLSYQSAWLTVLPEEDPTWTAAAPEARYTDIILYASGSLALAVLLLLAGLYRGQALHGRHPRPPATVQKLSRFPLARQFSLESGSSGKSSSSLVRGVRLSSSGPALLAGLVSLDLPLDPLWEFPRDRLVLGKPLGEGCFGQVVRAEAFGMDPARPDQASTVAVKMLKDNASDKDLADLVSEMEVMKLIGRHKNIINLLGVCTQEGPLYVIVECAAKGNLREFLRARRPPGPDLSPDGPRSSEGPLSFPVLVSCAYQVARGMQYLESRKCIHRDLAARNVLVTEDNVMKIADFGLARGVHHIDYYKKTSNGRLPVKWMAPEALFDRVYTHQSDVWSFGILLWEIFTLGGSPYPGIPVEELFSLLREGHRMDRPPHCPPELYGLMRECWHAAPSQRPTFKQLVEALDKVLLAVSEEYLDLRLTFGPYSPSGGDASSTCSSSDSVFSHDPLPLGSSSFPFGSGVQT
Outline: as §1

PRKCH = target: T27, PRKCH (Homo sapiens, UniProt P24723)
T27 construct: host or cells: T7 phage in E. coli host derived from BL21
T27 sequence (P24723 whole entry): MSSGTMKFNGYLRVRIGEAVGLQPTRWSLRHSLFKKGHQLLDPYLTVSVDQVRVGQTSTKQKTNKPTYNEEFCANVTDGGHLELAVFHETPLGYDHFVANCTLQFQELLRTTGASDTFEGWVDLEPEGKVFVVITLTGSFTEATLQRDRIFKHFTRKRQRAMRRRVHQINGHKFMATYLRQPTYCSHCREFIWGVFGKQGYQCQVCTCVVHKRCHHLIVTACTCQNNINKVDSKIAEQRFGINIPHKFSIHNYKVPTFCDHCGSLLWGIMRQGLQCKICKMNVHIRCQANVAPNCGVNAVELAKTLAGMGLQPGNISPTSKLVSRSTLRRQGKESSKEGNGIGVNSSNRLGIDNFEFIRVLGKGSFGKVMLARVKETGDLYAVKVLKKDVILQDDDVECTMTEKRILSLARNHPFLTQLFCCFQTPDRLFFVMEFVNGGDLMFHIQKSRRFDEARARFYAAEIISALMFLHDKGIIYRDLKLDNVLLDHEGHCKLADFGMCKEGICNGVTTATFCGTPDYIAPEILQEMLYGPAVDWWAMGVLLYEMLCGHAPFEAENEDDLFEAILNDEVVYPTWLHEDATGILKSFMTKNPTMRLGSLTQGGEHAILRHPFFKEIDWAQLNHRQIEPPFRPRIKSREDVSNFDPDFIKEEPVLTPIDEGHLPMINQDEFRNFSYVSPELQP
Outline: as §1

AURKC = target: T28, AURKC (Homo sapiens, UniProt Q9UQB9)
T28 construct: host or cells: E. coli host derived from BL21
T28 sequence (Q9UQB9 whole entry): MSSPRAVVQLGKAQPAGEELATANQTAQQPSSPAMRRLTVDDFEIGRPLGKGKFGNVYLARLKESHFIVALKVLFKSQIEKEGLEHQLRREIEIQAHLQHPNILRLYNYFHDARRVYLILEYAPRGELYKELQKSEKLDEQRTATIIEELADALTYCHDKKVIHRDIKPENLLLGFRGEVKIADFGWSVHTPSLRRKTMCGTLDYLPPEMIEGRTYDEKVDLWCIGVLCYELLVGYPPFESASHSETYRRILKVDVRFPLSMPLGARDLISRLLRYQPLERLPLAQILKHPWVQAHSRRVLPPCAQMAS
Outline: as §1

BMX = target: T29, BMX (Homo sapiens, UniProt P51813)
T29 construct: host or cells: E. coli host derived from BL21
Outline: as §1

CAMK2D = target: T30, CAMK2D (Homo sapiens, UniProt Q13557)
T30 construct: host or cells: E. coli host derived from BL21
Outline: as §1

BMPR2 = target: T31, BMPR2 (Homo sapiens, UniProt Q13873)
T31 construct: host or cells: E. coli host derived from BL21
Outline: as §1

ULK1 = target: T32, ULK1 (Homo sapiens, UniProt O75385)
T32 construct: host or cells: E. coli host derived from BL21, T7 phage
Outline: as §1

ZAP70 = target: T33, ZAP70 (Homo sapiens, UniProt P43403)
T33 construct: host or cells: T7 phage grown in an E. coli host derived from BL21
T33 sequence (P43403 whole entry): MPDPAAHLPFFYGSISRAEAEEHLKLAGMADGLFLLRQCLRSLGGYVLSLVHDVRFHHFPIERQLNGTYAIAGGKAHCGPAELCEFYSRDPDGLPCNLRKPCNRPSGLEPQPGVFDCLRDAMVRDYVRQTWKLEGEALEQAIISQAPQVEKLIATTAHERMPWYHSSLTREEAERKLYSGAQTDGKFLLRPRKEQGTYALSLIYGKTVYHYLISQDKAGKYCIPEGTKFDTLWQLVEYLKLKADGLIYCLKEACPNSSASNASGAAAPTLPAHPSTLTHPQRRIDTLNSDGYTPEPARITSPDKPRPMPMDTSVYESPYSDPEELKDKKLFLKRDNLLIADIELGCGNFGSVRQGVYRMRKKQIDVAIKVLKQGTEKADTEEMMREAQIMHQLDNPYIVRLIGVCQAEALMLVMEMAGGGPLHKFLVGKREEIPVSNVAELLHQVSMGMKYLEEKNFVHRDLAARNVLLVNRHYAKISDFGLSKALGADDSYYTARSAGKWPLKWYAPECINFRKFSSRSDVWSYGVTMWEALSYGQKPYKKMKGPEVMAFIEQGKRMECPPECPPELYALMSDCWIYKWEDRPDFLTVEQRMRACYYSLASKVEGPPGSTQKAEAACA
Outline: as §1

EPHA5 = target: T34, EPHA5 (Homo sapiens, UniProt P54756)
T34 construct: purchased Ambit Biosciences Corp; host or cells: T7 phage in E. coli host derived from BL21
Outline: as §1

C#Cc1cccc(Nc2ncnc3cc(OC)c(OCCCN4CCOCC4)cc23)c1 [NRC-2694, N-(3-ethynylphenyl)-7-methoxy-6-[3-(4-morpholinyl)propoxy]-4-quinazolinamine]
remaining binding at 10 µM (EGFR(E746-A750del)): 0%
remaining binding at 10 µM (SYK): 56%
remaining binding at 10 µM (DDR2): 76%
remaining binding at 10 µM (CDK9): 86%
remaining binding at 10 µM (CSNK1G2): 76%
remaining binding at 10 µM (ACVR1B): 63%
remaining binding at 10 µM (BRSK2): 33%
remaining binding at 10 µM (CAMK1D): 83%
remaining binding at 10 µM (KIT(V559D)): 17%
remaining binding at 10 µM (p38-alpha): 89%
remaining binding at 10 µM (ERK2): 100%
remaining binding at 10 µM (MAP3K3): 5.9%
remaining binding at 10 µM (FYN): 41%
remaining binding at 10 µM (CDK3): 91%
remaining binding at 10 µM (MLK2): 83%
remaining binding at 10 µM (MAP4K3): 52%
remaining binding at 10 µM (p38-gamma): 97%
remaining binding at 10 µM (ABL1(M351T)): 37%
remaining binding at 10 µM (SNARK): 19%
remaining binding at 10 µM (CSNK1A1L): 44%
remaining binding at 10 µM (MST1R): 94%
remaining binding at 10 µM (FGFR3): 100%
remaining binding at 10 µM (ERK1): 98%
remaining binding at 10 µM (CAMKK2): 60%
remaining binding at 10 µM (ACVR1): 61%
remaining binding at 10 µM (FGFR4): 69%
remaining binding at 10 µM (PRKCH): 83%
remaining binding at 10 µM (AURKC): 47%
remaining binding at 10 µM (BMX): 73%
remaining binding at 10 µM (CAMK2D): 35%
remaining binding at 10 µM (BMPR2): 100%
remaining binding at 10 µM (ULK1): 100%
remaining binding at 10 µM (ZAP70): 100%
remaining binding at 10 µM (EPHA5): 86%
